Tests used:
[1] = test system: hippocampal SC-CA1 synapses; assay: Tetanus-induced LTP (fEPSP), hippocampal slices; format: cell-based, mouse; details: 4 uM
Experimental: For electrophysiological experiments, sagittal hippocampal slices (400 uM thick for extracellular, 300 uM thick for intracellular recordings) of Shank2^-/- mice (or ZnT3^-/- mice) and their wild-type littermates were prepared using a vibratome (Leica VT1200) in ice-cold dissection buffer containing (in mM) 212 sucrose, 25 NaHCO3, 5 KCl, 1.25 NaH2PO4, 0.5 CaCl2, 3.5 MgSO4, 10 D-glucose, 1.25 L-ascorbic acid, and 2 Na-pyruvate bubbled with 95% 02/5% CO2. CA3 was removed to prevent epileptiform activity. Slices were restored for 1 hour in 32° C. in a normal artificial CSF (ACSF) (In units of mM: 124 NaCl, 2.5 kCl, 1 NaH2PO4, 25 NaHCO3, 10 glucose, 2 CaC12, 2 Mg504 oxidized by 95% 02/5% CO2) For the recording, a single slice was moved to and maintained in submerged-type chamber at 28° C., continuously perfused with ACSF (2 mL/minute) saturated with 95% 02/5% CO2. Stimulation and recording pipettes were pulled from borosilicate glass capillaries (Harvard Apparatus) using a micropipette electrode puller ([…]). For extracellular recordings, mouse hippocampal slices at the age of postnatal day 21 to 35 were used. Field excitatory postsynaptic potentials (fEPSPs) were recorded in the stratum radiatum of the hippocampal CA1 region using pipettes filled with ACSF (1 MΩ). fEPSP was amplified (Multiclamp 700B, Molecular Devices), and digitized (Digidata 1440A, Molecular Devices) for measurements. The Schaffer collateral pathway was stimulated every 20 seconds with pipettes filled with ACSF (0.3 to 0.5 MΩ). The stimulation intensity was adjusted to yield a half-maximal response, and three successive responses were averaged and expressed relative to the normalized baseline. To induce LTP, high frequency stimulation (100 Hz, 1 s) was applied after a stable baseline was acquired.

[2] = test system: NMDAR; assay: NMDA-fEPSP extracellular recordings, hippocampal slices; format: cell-based, mouse; details: for NMDAR function (NMDA-fEPSPs) at ZnT3^−/− synapses: ZnT3^−/− hippocampal SC-CA1 synapses
Experimental: For electrophysiological experiments, sagittal hippocampal slices (400 uM thick for extracellular, 300 uM thick for intracellular recordings) of Shank2^−/− mice (or ZnT3^−/− mice) and their wild-type littermates were prepared using a vibratome (Leica VT1200) in ice-cold dissection buffer containing (in mM) 212 sucrose, 25 NaHCO3, 5 KCl, 1.25 NaH2PO4, 0.5 CaCl2, 3.5 MgSO4, 10 D-glucose, 1.25 L-ascorbic acid, and 2 Na-pyruvate bubbled with 95% 02/5% CO2. CA3 was removed to prevent epileptiform activity. Slices were restored for 1 hour in 32° C. in a normal artificial CSF (ACSF) (In units of mM: 124 NaCl, 2.5 kCl, 1 NaH2PO4, 25 NaHCO3, 10 glucose, 2 CaC12, 2 Mg504 oxidized by 95% 02/5% CO2) For the recording, a single slice was moved to and maintained in submerged-type chamber at 28° C., continuously perfused with ACSF (2 mL/minute) saturated with 95% 02/5% CO2. Stimulation and recording pipettes were pulled from borosilicate glass capillaries (Harvard Apparatus) using a micropipette electrode puller (Narishege).
For extracellular recordings, mouse hippocampal slices at the age of postnatal day 21 to 35 were used. Field excitatory postsynaptic potentials (fEPSPs) were recorded in the stratum radiatum of the hippocampal CA1 region using pipettes filled with ACSF (1 MΩ). fEPSP was amplified (Multiclamp 700B, Molecular Devices), and digitized (Digidata 1440A, Molecular
Devices) for measurements. The Schaffer collateral pathway was stimulated every 20 seconds with pipettes filled with ACSF (0.3 to 0.5 MΩ). The stimulation intensity was adjusted to yield a half-maximal response, and three successive responses were averaged and expressed relative to the normalized baseline. To induce LTP, high frequency stimulation (100 Hz, 1 s) was applied after a stable baseline was acquired. […] To isolate NMDAR-mediated fEPSPs, ACSF containing 2 mM calcium, 0.1 mM magnesium, and 6,7-dinitroquinoxaline-2,3-dione (10 uM, DNQX, Tocris), which inhibits AMPAR-mediated EPSPs, were used.

[3] = test system: Shank2^−/− mice; assay: Open field test; format: in vivo, mouse; details: 30 mg/kg i.p.; for Locomotor activity (hyperactivity, excessive action) / Time spent in the center region (anxiety-like behavior): 30 mg/kg
Experimental: The injection was performed 2 hours before (Shank2^−/− mice and wild-type littermates), or 3 hours before (Tbr1^+/− mice and wild-type littermates) behavioral assays at the discretion of the facility. A within-subjects design was designed with a one week washout period (FIG. 8), and divided animals into two groups, vehicle-first and clioquinol-first group, to rule out carryover effects. Each mouse received a single acute dose of vehicle or clioquinol, and underwent a single behavioral task, one task per week. Testing was conducted in dedicated behavioral test rooms during the light phase (three-chamber test) and the dark phase (repetitive behaviors and open field test). The size of the open field box was 40×40×40 cm, and the center zone line was 13.3 cm apart from the edge. Mice were placed in the center in the beginning of the test, and mouse movements were recorded with a video camera for 60 minutes, and analyzed by Ethovision 10.0 (Noldus).

[4] = test system: Shank2^−/− mice; assay: Repetitive behaviors (jumping, grooming) in home cage; format: in vivo, mouse; details: 30 mg/kg i.p.; for Grooming / Jumping: Shank2^−/− mice, 2 hours prior to testing; for Repetitive behaviors: wild-type mice
Experimental: The injection was performed 2 hours before (Shank2^−/− mice and wild-type littermates), or 3 hours before (Tbr1^+/− mice and wild-type littermates) behavioral assays at the discretion of the facility. A within-subjects design was designed with a one week washout period (FIG. 8), and divided animals into two groups, vehicle-first and clioquinol-first group, to rule out carryover effects. Each mouse received a single acute dose of vehicle or clioquinol, and underwent a single behavioral task, one task per week. Testing was conducted in dedicated behavioral test rooms during the light phase (three-chamber test) and the dark phase (repetitive behaviors and open field test). Shank2^−/− mice and their wild-type littermates in their home cages without bedding were used to measure times spent in repetitive behaviors including jumping and grooming. In this case, jumping is defined as mice planting rear feet and standing up by lifting front feet along the cage, in other words, the cage corner or a side wall, and jumping up such that both of the rear feed are separated from the bottom surface. Meanwhile, grooming is defined as stroking or scratching the face or the body with two front feet or licking a part of the body. The experiments and analysis were performed independently in a blind manner.

SMILES: Oc1c(I)cc(Cl)c2cccnc12 [clioquinol, 5-Chloro-7-Iodo-8-Hydroxyquinoline]
- Tetanus (100 Hz)-induced LTP ([1]; Shank2^−/− SC-CA1 synapses): reversed the reduced tetanus-induced long-term potentiation
- Tetanus (100 Hz)-induced LTP ([1]; Shank2^−/− SC-CA1 synapses, listed as CQ): restored LTP
- Tetanus (100 Hz)-induced LTP ([1]; wild-type synapses): had no effect on LTP
- NMDAR function (NMDA-fEPSPs) in the presence of PP3 ([2]; CQ 4 uM, 20 minutes): effectively enhances NMDAR function
- NMDAR function (NMDA-fEPSPs) in the presence of Ca-EDTA ([2]; CQ 4 uM, 20 minutes, Ca-EDTA 2 mM throughout recordings): fails to enhance NMDAR function
- NMDAR function (NMDA-fEPSPs) in the presence of PP2 ([2]; CQ 4 uM, 20 minutes, PP2 10 uM throughout recordings): fails to enhance NMDAR function
- NMDAR function (NMDA-fEPSPs) in the presence of SU6656 ([2]; CQ 4 uM, 20 minutes, SU6656 10 uM throughout recordings): fails to enhance NMDAR function
- NMDAR function (NMDA-fEPSPs) in the presence of TPEN ([2]; CQ 4 uM, 20 minutes, TPEN 25 uM throughout recordings): fails to enhance NMDAR function
- Initial slopes of NMDA-fEPSPs ([2]; Shank2^−/− SC-CA1 synapses, clioquinol for 20 minutes): ~150 % of baseline levels
- NMDAR function (NMDA-fEPSPs) in the presence of cuprizone ([2]; WT and KO slices): enhances NMDAR function
- NMDAR function (NMDA-fEPSPs) ([2]; WT and Shank2^−/− SC-CA1 synapses, 4 uM, 20 minutes): enhances NMDAR function
- NMDAR function (NMDA-fEPSPs) at ZnT3^−/− synapses [2]: had no effect on NMDAR activity
- NMDAR function (NMDA-fEPSPs) at ZnT3^−/− synapses ([2]; listed as CQ): fails to enhance NMDAR function
- Locomotor activity (hyperactivity, excessive action) ([3]; Shank2^−/− mice): did not weaken
- Time spent in the center region (anxiety-like behavior) ([3]; Shank2^−/− mice): had no effect on the center-region time
- Time spent in the center region (anxiety-like behavior) ([3]; Shank2^−/− mice, listed as CQ): has no effect on the time spent in the center region
- Locomotor activity (hyperactivity, excessive action) ([3]; Shank2^−/− mice, listed as Clioquinol): did not improve excessive action
- Locomotor behavior ([3]; wild-type mice): had no effect
- Time spent in the center region (anxiety-like behavior) ([3]; wild-type mice, listed as CQ): has no effect on the time spent in the center region
- Time spent in the center region (anxiety-like behavior) ([3]; wild-type mice, listed as Clioquinol): had no effect
- Grooming [4]: not influenced
- Jumping [4]: not influenced
- Grooming ([4]; listed as CQ): has no effect on grooming
- Jumping ([4]; listed as CQ): fails to improve jumping
- Grooming ([4]; listed as Clioquinol): had no effect
- Jumping ([4]; listed as Clioquinol): had no effect
- Repetitive behaviors [4]: did not affect repetitive behaviors
- Repetitive behaviors ([4]; listed as Clioquinol): had no effect
